Laboratory results reported in ChEMBL document CHEMBL5241137, “Evaluation of carboxylic acid-derivatized corroles as novel gram-positive antibacterial agents under non-photodynamic inactivation conditions” (2023).
In brackets after ≈: the same amount, converted by molar mass.

Experiments:
[1] = test system: Staphylococcus aureus; assay: Antibacterial activity against methicillin-resistant Staphylococcus aureus […] assessed as reduction in bacterial growth measured under non-photodynamic inactivation condition; format: functional; conditions: light or radiation study
[2] = test system: Staphylococcus aureus; assay: Antibacterial activity against methicillin-sensitive Staphylococcus aureus ATCC 29213 assessed as reduction in bacterial growth measured under non-photodynamic inactivation condition; format: functional; conditions: ATCC 29213, light or radiation study

SMILES | MIC [1] [µg/mL] | MIC [2] [µg/mL]
Cc1ccc(-c2c3nc(c(-c4ccc(C(=O)O)cc4)c4ccc([nH]4)c(-c4ccc(C)cc4)c4ccc([nH]4)c4ccc2[nH]4)C=C3)cc1 | 100 (≈ 167 µM) | 100 (≈ 167 µM)
O=C(O)c1ccc(C(c2ccc[nH]2)c2ccc[nH]2)cc1 | 50 (≈ 188 µM) | 50 (≈ 188 µM)
Cc1c(C(=O)O)[nH]c(C(c2ccccc2)c2[nH]c(C(=O)O)c(C)c2C)c1C | 50 (≈ 136 µM) | 100 (≈ 273 µM)
CO[C@@]1(NC(=O)Cc2cccs2)C(=O)N2C(C(=O)O)=C(COC(N)=O)CS[C@@H]21 [CEFOXITIN] | 25 (≈ 58.5 µM) | 3.12 (≈ 7.3 µM)
CN[C@H](CC(C)C)C(=O)N[C@H]1C(=O)N[C@@H](CC(N)=O)C(=O)N[C@H]2C(=O)N[C@H]3C(=O)N[C@H](C(=O)N[C@H](C(=O)O)c4cc(O)cc(O)c4-c4cc3ccc4O)[C@H](O)c3ccc(c(Cl)c3)Oc3cc2cc(c3O[C@@H]2O[C@H](CO)[C@@H](O)[C@H](O)[C@H]2O[C@H]2C[C@](C)(N)[C@H](O)[C@H](C)O2)Oc2ccc(cc2Cl)[C@H]1O [VANCOMYCIN] | 0.39 (≈ 0.269 µM) | 0.39 (≈ 0.269 µM)
Fc1cc(F)c(F)c(-c2c3nc(c(-c4c(F)c(F)c(F)c(F)c4F)c4ccc([nH]4)c(-c4c(F)c(F)cc(F)c4F)c4ccc([nH]4)c4ccc2[nH]4)C=C3)c1F | 12.5 (≈ 16.4 µM) | 25 (≈ 32.9 µM)
O=C(O)c1ccc(-c2c3nc(c(-c4ccc(C(=O)O)cc4)c4ccc([nH]4)c4ccc([nH]4)c(-c4ccc(C(=O)O)cc4)c4ccc2[nH]4)C=C3)cc1 | 100 (≈ 152 µM) | 100 (≈ 152 µM)
O=S(=O)(O)CCNc1c(F)c(F)c(-c2c3nc(c(-c4c(F)c(F)c(NCCS(=O)(=O)O)c(F)c4F)c4ccc([nH]4)c4ccc([nH]4)c(-c4c(F)c(F)c(NCCS(=O)(=O)O)c(F)c4F)c4ccc2[nH]4)C=C3)c(F)c1F | 100 (≈ 89.9 µM) | > 100
Cc1ccc(-c2c3nc(c(-c4cc(C(=O)O)cc(C(=O)O)c4)c4ccc([nH]4)c4ccc([nH]4)c(-c4cc(C(=O)O)cc(C(=O)O)c4)c4ccc2[nH]4)C=C3)cc1 | 12.5 (≈ 17.4 µM) | 12.5 (≈ 17.4 µM)
